Patent publication US10537611B2, “Methods of treating lung cancer” (Five Prime Therapeutics, Inc., priority 2011, dated 2020)

Experiments:
Du145 xenograft model = assay: Du145 xenograft tumor growth inhibition; format: in vivo, mouse; details: Prostate Du145; IP 0.15 mg/kg 3×/w; non-amplified; P ns
Description: (§1) Percentage tumor growth inhibition by FGFR1-ECD.339-Fc was determined by area-under-the-curve (AUC) analysis of xenograft growth curves treated with FGFR1-ECD.339-Fc compared to albumin control. […] The difference in FGFR1-ECD.339-Fc-mediated xenograft inhibition between FGFR1 gene amplified and non-amplified lung cancer xenograft models was statistically significant (P=0.0333).
(§2) Also shown in Table 5 are the dosing schedule for FGFR1-ECD.339-Fc in a mouse xenograft model, the percent tumor growth inhibition (TGI (%)) and the statistical significance of the tumor growth inhibition (P Value), as well as whether the FGFR1 gene is amplified in the cell line.
(§3) An exemplary xenograft experiment is as follows. For Caki-1 and MSTO-211H, five million cells were implanted subcutaneously over the right flank of SCID mice (N=10 per group). […] Representative tumor growth curves are shown for a renal cancer, Caki-1, (A), and mesothelioma, MSTO-211H, (B) xenograft cancer model. […] In the MSTO-211H mesothelioma model, FGFR1-ECD.339-Fc administration reduced tumor growth (FIG. 16b) by 64% (P<0.0001).

[1] = system: VEGF-induced proliferation of HUVEC cells; assay: VEGF-A induced HUVEC proliferation; format: cell-based, human; details: 10 μg/ml; 15 ng/ml VEGF-A165; 3 days, CellTiter-Glo
Description: To determine whether FGFR1-ECD.339-Fc blocks VEGF-induced proliferation of endothelial cells, HUVEC cells (Life Technologies, Grand Island, N.Y.) were seeded at a density of 4×10^3 cells/well in basal media (Medium 200 (Life Technologies) with 2% heat inactivated FBS) and stimulated with either 10 ng/ml FGF2 (R&D Systems, Minneapolis, Minn.) or 15 ng/ml VEGF-A165 (R&D Systems, Minneapolis, Minn.) either in the presence of absence of 10 μg/ml FGFR1-ECD.339-Fc. HUVEC cell proliferation was determined 3 days post-stimulation using CellTiter-Glo® Luminescent Cell Viability Assay.

[2] = Histological analysis of 55 tissues in rats; format: in vivo, rat; details: high-dose
Description: At the 200 mg/kg/qwk dose the maximal plasma concentration of the drug was 3.6 and 4.2 mg/ml for female and male rats, respectively (FIG. 18A).

A498 xenograft model = assay: A498 xenograft tumor growth inhibition; format: in vivo, mouse; details: Renal A498; IP 15 mg/kg BIW; non-amplified; P ns
Description: as §1, §2, §3

[3] = system: VEGF-A induced angiogenesis; assay: Matrigel plug assay, VEGF-A induced angiogenesis; format: in vivo, mouse; details: C57BL/6 mice; 15 or 45 mg/kg
Description: Recombinant human FGF-2 (final concentration 250 ng/ml; Peprotech) and/or recombinant human VEGF-A (final concentration 100 ng/ml; Peprotech) were added to matrigel (BD Biosciences, Franklin Lakes, N.J.) with sodium heparin (2 units/ml; Sigma). FGF-2 and/or VEGF-A containing matrigel plugs (one per animal) were implanted subcutaneously in the abdomen region of C57BL/6 mice (Charles River, Wilmington, Mass.). FGFR1-ECD.339-Fc was administered by tail vein injection on days 1, 4, and 7 post-matrigel implantation. On day 9, plugs were excised and processed for hematoxylin and eosin (H&E) staining. Digital images of the stained matrigel sections were generated using a Retiga 2000R digital camera (QImaging, Burnaby, BC). Image analysis was performed using Image-Pro Plus 5.1 (Media Cybernetics Inc., Silver Spring, Md.). Neovascularization was defined as the cellular response in the Matrigel plugs, consisting of newly formed blood vessels and migrated cells.

[4] = system: lung cancer cell lines without FGFR1 gene amplification; assay: CellTiter-Glo cell number, non-amplified lung cancer cell lines (average); format: cell-based, human; details: averaged across all FBS concentrations, vs control ECD-Fc
Description: To determine the impact of FGFR1-ECD.339-Fc on lung cancer cell lines in tissue culture, cells were plated in a Microtest™ 96-well tissue culture plate (Becton Dickenson, Franklin Lakes, N.J.) at a density of 5×10^3 cells/well in medium containing 10%, 1% or 0.1% FBS in the presence or absence of 15 μg/ml FGFR1-ECD.339-Fc (SEQ ID NO: 6) or an unrelated ECD-Fc fusion protein (as a negative control). Plates were incubated at 37° C. at 5% CO2 for 4 days and then assayed to determine the impact of FGFR1-ECD.339-Fc on cell number and proliferation.
To determine cell number the CellTiter-Glo® Luminescent Cell Viability Assay (Promega, Madison, Wis.) was employed. CellTiter-Glo® is a homogeneous method of determining the number of viable cells in culture based on quantitation of the ATP present, an indicator of metabolically active cells. In brief, CellTiter-Glo® Reagent was added to each well of the tissue culture plate at a volume equal to the volume of cell culture medium present in each well (100 μl), the contents mixed for 2 minutes on an orbital shaker to induce cell lysis and then the plate incubated for 10 minutes at room temperature. Luminescence was then determined on an EnVision™ Multilabel Plate Reader (PerkinElmer, Boston, Mass.) with a 0.2 second integration time. Results were expressed as relative light units (RLU)/well. […]

## FGFR1-ECD.339-Fc: human FGFR1 extracellular domain ending at amino acid 339 fused to an Fc; SEQ ID NO: 6 (mature form), SEQ ID NO: 5 with signal peptide
Du145 xenograft model
  TGI (%): 31%
[1]
  VEGF-induced proliferation of HUVECs: did not block
[2]
  histological changes (hyperphosphatemia-related calcium-phosphorus deposition): failed to reveal any changes
A498 xenograft model
  TGI (%): 7%
[3]
  in vivo angiogenesis, matrigel plug with VEGF-A only: completely blocked
[4]
  average decrease in cell number (CellTiterGlo RLU): 9.33%
